The results in this text go back to ChEMBL document CHEMBL5055672, “Design, Synthesis, Biological Evaluation, and Computational Studies of Novel Fluorinated Candidates as PI3K Inhibitors: Targeting Fluorophilic Binding Sites” (J Med Chem, 2021).

One data set has as its system EKVX. Nature of the data set: Cytotoxicity against human EKVX cells assessed as growth inhibition at 10 uM after 48 hrs by sulforhodamine B assay. As to conditions: read-out: GI. In kind it is functional. A general note: Sulforhodamine B stains cellular protein and so reports cell mass.
Data set [1] relates to MCF7. In words: Cytotoxicity against human MCF7 cells assessed as growth inhibition at 10 uM after 48 hrs by sulforhodamine B assay. The format is functional. Particulars: read-out: GI.
For the next data set, the system named is NCI-H522. In words: Cytotoxicity against human NCI-H522 cells assessed as growth inhibition at 10 uM after 48 hrs by sulforhodamine B assay. In kind it is functional. As to conditions: read-out: GI.
The test system of another data set is UO-31. In words: Cytotoxicity against human UO-31 cells assessed as growth inhibition at 10 uM after 48 hrs by sulforhodamine B assay. The format is functional. Particulars: read-out: GI.
In a further data set the test system is SR. Nature of the data set: Cytotoxicity against human SR cells assessed as growth inhibition at 10 uM after 48 hrs by sulforhodamine B assay. In kind it is functional. As to conditions: read-out: GI.
In another data set the test system is HOP-62. In words: Cytotoxicity against human HOP-62 cells assessed as growth inhibition at 10 uM after 48 hrs by sulforhodamine B assay. In kind it is functional. As to conditions: read-out: GI.
The next data set deals with SF-539. Nature of the data set: Cytotoxicity against human SF-539 cells assessed as growth inhibition at 10 uM after 48 hrs by sulforhodamine B assay. In kind it is functional. Particulars: read-out: GI.
Data set [2] in a line: Cytotoxicity against human Hs 578T cells assessed as growth inhibition at 10 uM after 48 hrs by sulforhodamine B assay. In kind it is functional. Particulars: read-out: GI.
The subject of a further data set is SNB-19. In words: Cytotoxicity against human SNB-19 cells assessed as growth inhibition at 10 uM after 48 hrs by sulforhodamine B assay. In kind it is functional. As to conditions: read-out: GI.
The next data set has as its system K562. Nature of the data set: Cytotoxicity against human K562 cells assessed as growth inhibition at 10 uM after 48 hrs by sulforhodamine B assay. The format is functional. As to conditions: read-out: GI.
The test system of the next data set is CCRF-CEM. Nature of the data set: Cytotoxicity against human CCRF-CEM cells assessed as growth inhibition at 10 uM after 48 hrs by sulforhodamine B assay. In kind it is functional. As to conditions: read-out: GI.
The next data set relates to MDA-MB-231. Nature of the data set: Cytotoxicity against human MDA-MB-231 cells assessed as growth inhibition at 10 uM after 48 hrs by sulforhodamine B assay. In kind it is functional. Particulars: read-out: GI.
The subject of the next data set is UACC-62. Nature of the data set: Cytotoxicity against human UACC-62 cells assessed as growth inhibition at 10 uM after 48 hrs by sulforhodamine B assay. As to conditions: read-out: GI. In kind it is functional.
Another data set concerns CAKI-1. Nature of the data set: Cytotoxicity against human CAKI-1 cells assessed as growth inhibition at 10 uM after 48 hrs by sulforhodamine B assay. In kind it is functional. As to conditions: read-out: GI.
In another data set the test system is U-251. Nature of the data set: Cytotoxicity against human U-251 cells assessed as growth inhibition at 10 uM after 48 hrs by sulforhodamine B assay. In kind it is functional. Particulars: read-out: GI.
The test system of another data set is SF-268. Nature of the data set: Cytotoxicity against human SF-268 cells assessed as growth inhibition at 10 uM after 48 hrs by sulforhodamine B assay. In kind it is functional. As to conditions: read-out: GI.
Another data set concerns MOLT-4. Nature of the data set: Cytotoxicity against human MOLT-4 cells assessed as growth inhibition at 10 uM after 48 hrs by sulforhodamine B assay. In kind it is functional. As to conditions: read-out: GI.
The test system of a further data set is HL-60(TB). Nature of the data set: Cytotoxicity against human HL-60(TB) cells assessed as growth inhibition at 10 uM after 48 hrs by sulforhodamine B assay. The format is functional. As to conditions: read-out: GI.
Another data set has as its system OVCAR-4. Nature of the data set: Cytotoxicity against human OVCAR-4 cells assessed as growth inhibition at 10 uM after 48 hrs by sulforhodamine B assay. The format is functional. Particulars: read-out: GI.
For another data set, the system named is SN12C. Nature of the data set: Cytotoxicity against human SN12C cells assessed as growth inhibition at 10 uM after 48 hrs by sulforhodamine B assay. In kind it is functional. Particulars: read-out: GI.
The next data set concerns NCI-H226. In words: Cytotoxicity against human NCI-H226 cells assessed as growth inhibition at 10 uM after 48 hrs by sulforhodamine B assay. Particulars: read-out: GI. In kind it is functional.
In a further data set the test system is T47D. Nature of the data set: Cytotoxicity against human T47D cells assessed as growth inhibition at 10 uM after 48 hrs by sulforhodamine B assay. In kind it is functional. As to conditions: read-out: GI.
In another data set the test system is MCF-10A. Nature of the data set: Cytotoxicity against human MCF10A cells assessed as inhibition of cell growth incubated for 48 hrs by MTT assay. In kind it is cell-based. (In general: Tetrazolium dyes change colour on reduction, which living cells bring about.)
The test system of data set [3] is MCF7. In words: Antiproliferative activity against human MCF7 cells assessed as inhibition of cell growth incubated for 48 hrs by MTT assay. In kind it is functional, cell-based. Particulars: MCF7, 48 h.
The nature of data set [4]: Selectivity index, ratio of IC50 for human MCF-10A cells to IC50 for human MCF7 cells. The format is toxicity. Particulars: MCF-10A cells versus MCF7 cells, read-out: Ratio IC50.
The target in data set [5] is T1, Phosphatidylinositol 4,5-bisphosphate 3-kinase catalytic subunit delta isoform (Homo sapiens, UniProt O00329).
T1 sequence (O00329 whole entry): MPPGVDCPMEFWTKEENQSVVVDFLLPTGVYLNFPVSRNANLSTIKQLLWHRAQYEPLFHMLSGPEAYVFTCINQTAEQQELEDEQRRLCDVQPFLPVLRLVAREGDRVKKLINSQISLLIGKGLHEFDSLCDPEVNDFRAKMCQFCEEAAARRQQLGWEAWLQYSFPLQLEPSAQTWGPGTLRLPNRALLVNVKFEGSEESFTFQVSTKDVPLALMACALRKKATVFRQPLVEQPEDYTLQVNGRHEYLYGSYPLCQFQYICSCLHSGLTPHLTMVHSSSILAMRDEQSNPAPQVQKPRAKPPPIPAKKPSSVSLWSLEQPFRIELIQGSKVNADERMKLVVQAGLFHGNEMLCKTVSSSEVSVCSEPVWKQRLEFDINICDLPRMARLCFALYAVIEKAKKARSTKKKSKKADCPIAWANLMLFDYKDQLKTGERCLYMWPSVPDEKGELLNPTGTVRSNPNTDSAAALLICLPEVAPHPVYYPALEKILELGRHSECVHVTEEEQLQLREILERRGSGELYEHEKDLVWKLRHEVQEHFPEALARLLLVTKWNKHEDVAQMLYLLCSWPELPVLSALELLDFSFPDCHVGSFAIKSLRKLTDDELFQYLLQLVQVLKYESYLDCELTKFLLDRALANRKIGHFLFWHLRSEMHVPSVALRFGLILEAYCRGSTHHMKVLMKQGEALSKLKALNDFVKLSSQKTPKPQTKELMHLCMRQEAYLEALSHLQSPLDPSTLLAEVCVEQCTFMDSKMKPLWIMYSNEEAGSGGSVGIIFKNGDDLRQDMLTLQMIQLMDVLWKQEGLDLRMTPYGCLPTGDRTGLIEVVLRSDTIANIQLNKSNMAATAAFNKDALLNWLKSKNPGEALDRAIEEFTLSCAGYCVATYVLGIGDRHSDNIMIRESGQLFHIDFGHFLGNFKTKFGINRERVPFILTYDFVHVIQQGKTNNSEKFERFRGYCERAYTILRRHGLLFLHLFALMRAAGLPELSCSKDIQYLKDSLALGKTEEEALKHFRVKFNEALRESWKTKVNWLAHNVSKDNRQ
In words: Inhibition of PI3Kdelta (unknown origin) using PIP2 as substrate preincubated for 10 mins followed by substrate addition and measured after 1 hr by ELISA. (ELISA stands for enzyme-linked immunosorbent assay.)

As to `FC(F)(F)c1ccc(/C=N/NC(=S)Nc2ccccc2)cc1`, in the data set with EKVX, the inhibition of growth at 10 µM is 10.3%.

Regarding `FC(F)(F)c1ccc(/C=N/N=c2\scc(-c3ccccc3)n2-c2ccccc2)cc1`, the inhibition of growth at 10 µM in the data set on MCF7 [1] was determined as 41.1%.

Regarding `O=S(=O)(Oc1ccc(/C=N/NC(=S)Nc2ccccc2)cc1)C(F)(F)C(F)(F)C(F)(F)C(F)(F)C(F)(F)C(F)(F)C(F)(F)C(F)(F)F`, the values for the inhibition of growth at 10 µM with NCI-H522 and with UO-31 were 10.1% and 13.3%, respectively.

Regarding `COC(=O)/C=C1\S/C(=N\N=C\c2ccc(OS(=O)(=O)C(F)(F)C(F)(F)C(F)(F)C(F)(F)C(F)(F)C(F)(F)F)cc2)N(c2ccccc2)C1=O`, the inhibition of growth at 10 µM in the data set on SR is 32.7%; in the data set on HOP-62, 13.1%; with SF-539 it was 13.7%; in data set [2], 23.7%; in the data set on SNB-19, 26.4%; with K562, 39%. The inhibition of growth at 10 µM in the data set on CCRF-CEM worked out at 22.7%; with MDA-MB-231 it was 12.8%; in the data set on UACC-62, 17.6%; in the data set with CAKI-1, 28%; in the data set on U-251, 10.4%; with SF-268, 10.4%. In the data set on MOLT-4, the inhibition of growth at 10 µM worked out at 13.4%.

For `O=S(=O)(Oc1ccc(/C=N/N=c2\scc(-c3ccccc3)n2-c2ccccc2)cc1)C(F)(F)C(F)(F)C(F)(F)C(F)(F)C(F)(F)C(F)(F)F`, in the data set on MCF7 [1], the inhibition of growth at 10 µM is 43.5%.

Turning to `O=S(=O)(Oc1ccc(/C=N/N=c2\scc(-c3ccccc3)n2-c2ccccc2)cc1)C(F)(F)C(F)(F)C(F)(F)C(F)(F)C(F)(F)C(F)(F)C(F)(F)C(F)(F)F`, the inhibition of growth at 10 µM in the data set on MCF7 [1] is 46.1%.

`FC(F)(F)c1ccc(-c2nnc(Nc3ccccc3)s2)cc1`: the inhibition of growth at 10 µM with SR was determined as 24.9%; in the data set with MCF7 [1], 11.4%; with NCI-H522, 11%; with K562, 13.7%; in the data set with HL-60(TB), 26.2%; in the data set with CAKI-1, 11.7%.

For `O=S(=O)(Oc1ccc(-c2nnc(Nc3ccccc3)s2)cc1)C(F)(F)C(F)(F)C(F)(F)C(F)(F)C(F)(F)C(F)(F)F`, the inhibition of growth at 10 µM in the data set with SR amounted to 80.5%; with HL-60(TB), 29.4%; in the data set with MDA-MB-231 it was 13.1%.

As to `O=S(=O)(Oc1ccc(-c2nnc(Nc3ccccc3)s2)cc1)C(F)(F)C(F)(F)C(F)(F)C(F)(F)F`, the inhibition of growth at 10 µM in the data set with SR stood at 10.1%; in the data set on HOP-62 it was 12.4%; in the data set with MCF7 [1] it was 12.8%; with OVCAR-4, 17.2%; in the data set on K562 it was 12.6%; with UACC-62, 10.7%. For the same compound, the inhibition of growth at 10 µM with SN12C is 14.5%; in the data set with CAKI-1, 22.1%; with NCI-H226, 15.8%; with T47D it was 14.1%; in the data set with UO-31, 19.9%.

Consider `FC(F)(F)COc1ccc(/C=N/N=c2\scc(-c3ccccc3)n2-c2ccccc2)cc1`, for which the inhibition of growth at 10 µM with MCF7 [1] is 53.4%.

For the compound `COC(=O)/C=C1\S/C(=N\N=C\c2ccc(OS(=O)(=O)C(F)(F)C(F)(F)C(F)(F)C(F)(F)F)cc2)N(c2ccccc2)C1=O`, the inhibition of growth at 10 µM in the data set on MCF7 [1] amounted to 10%; with UACC-62, 21.6%.

By IC50 is commonly meant the concentration that gives 50% inhibition. Take `COc1cccc2c1C(=O)c1c(O)c3c(c(O)c1C2=O)C[C@@](O)(C(=O)CO)C[C@@H]3O[C@H]1C[C@H](N)[C@H](O)[C@H](C)O1` [DOXORUBICIN]: in the data set with MCF-10A, the IC50 is 19 µM.

Take `COc1cc([C@@H]2c3cc4c(cc3[C@@H](O[C@@H]3O[C@@H]5CO[C@@H](C)O[C@H]5[C@H](O)[C@H]3O)[C@H]3COC(=O)[C@H]23)OCO4)cc(OC)c1O` [ETOPOSIDE]: the results for the IC50 with MCF-10A and in the data set on MCF7 [3] were 84.7 µM and 12.6 µM, respectively. Besides, the selectivity ratio in data set [4] worked out at 3.86.

As for `O=c1cc(N2CCOCC2)oc2c(-c3ccccc3)cccc12` [LY-294002], in data set [5], inhibition was half-maximal at 14.9 µM (IC50).
